Reference: US20240270762A1, “PENICILLIN-BINDING PROTEIN INHIBITORS” (priority 2021, published 2024)
Values after ≈ are worked out from the molar mass of the structure shown.

Assays:
A. baumannii CDC-0036 = test: microbe, parasite or virus in culture; type: cell-based; conditions: Acinetobacter baumannii, CDC0036, read-out: MIC, A. baumannii CDC-0036
[1] = tested on: N. gonorrhoeae ATCC 49226; test: Liquid broth MIC in Fastidious broth; conditions: Neisseria gonorrhoeae, ATCC49226, read-out: Minimum Inhibitory Concentration (MIC), N. gonorrhoeae ATCC 49226
N. gonorrhoeae WHO X = test: Liquid broth MIC in Fastidious broth; conditions: Neisseria gonorrhoeae, read-out: Minimum Inhibitory Concentration (MIC), N. gonorrhoeae WHO X
Protocol: Liquid broth-based assays were used for antibacterial testing of PBP inhibitors in Neisseria gonorrhoeae. Briefly, cryo-preserved bacterial cultures of clinical strains were streaked for isolation on Chocolate Agar (72 g/L (2×) GC Agar Base (BD #228950) and 2% (2×) Hemoglobin was autoclaved at 121° C. for 20 minutes to sterilize. Once cooled to ˜50° C. the 2×GC Agar Base and 2× Hemoglobin solutions are combined and 1% IsoVitaleX Enrichment (BD #211876) was added to the solution). Strains were incubated at 36° C. and 5% CO2 to allow growth of colonies, 24 hours before inoculum preparation. 2-fold serial dilutions of test compounds were conducted in a 96 well plate with a final volume of 75 μL per well at 2-fold the final desired concentration in Fastidious broth (Remel #R07664). For preparation of assay inoculum, a direct suspension was prepared by aseptically swabbing 10-15 colonies from agar plates into culture tubes containing 2 mL of fresh sterile saline. After the dilution plates were set up, direct suspensions were then diluted in a cuvette containing sterile saline and the optical density was measured at 600 nm. Inocula were diluted such that 75 μL of this culture in Fastidious broth results in a starting bacterial concentration of 5×10^5 CFU/mL when added to the dilution plates. The plates were incubated for ˜24 hours at 36° C. and 5% CO2.

A. baumannii 1258916 = test: microbe, parasite or virus in culture; type: cell-based, Acinetobacter baumannii; conditions: Acinetobacter baumannii, 1258916, read-out: MIC, A. baumannii 1258916
A. baumannii CDC-0033 = test: microbe, parasite or virus in culture; type: cell-based; conditions: Acinetobacter baumannii, CDC0033, read-out: MIC, A. baumannii CDC-0033
N. gonorrhoeae MS11 = test: Liquid broth MIC in Fastidious broth; conditions: Neisseria gonorrhoeae, MS11, read-out: Minimum Inhibitory Concentration (MIC), N. gonorrhoeae MS11
Protocol: Additional antibacterial testing of the series was performed in 8 reference strains of N. gonorrhoeae (ATCC 49226, FA1090, MS 11, WHO G, WHO L, WHO M, WHO K, WHO X, WHO Z, WHO Q, CDC-0197). ATCC 49226, FA1090, MS11, WHO G, WHO L, and WHO M produce wild type or wild-type like PBP2. WHO K, WHO X, WHO Z, WHO Q, and CDC-0197 produce mosaic PBP2. Liquid broth-based assays were used for antibacterial testing of PBP inhibitors in Neisseria gonorrhoeae. Briefly, cryo-preserved bacterial cultures of clinical strains were streaked for isolation on Chocolate Agar (72 g/L (2×) GC Agar Base (BD #228950) and 2% (2×) Hemoglobin was autoclaved at 121° C. for 20 minutes to sterilize. Once cooled to ˜50° C. the 2×GC Agar Base and 2× Hemoglobin solutions are combined and 1% IsoVitaleX Enrichment (BD #211876) was added to the solution). Strains were incubated at 36° C. and 5% CO2 to allow growth of colonies, 24 hours before inoculum preparation. 2-fold serial dilutions of test compounds were conducted in a 96 well plate with a final volume of 75 μL per well at 2-fold the final desired concentration in Fastidious broth (Remel #R07664). For preparation of assay inoculum, a direct suspension was prepared by aseptically swabbing 10-15 colonies from agar plates into culture tubes containing 2 mL of fresh sterile saline. After the dilution plates were set up, direct suspensions were then diluted in a cuvette containing sterile saline and the optical density was measured at 600 nm. Inocula were diluted such that 75 μL of this culture in Fastidious broth results in a starting bacterial concentration of 5×10^5 CFU/mL when added to the dilution plates. The plates were incubated for ˜24 hours at 36° C. and 5% CO2.

P. aeruginosa CDC-0110 = test: microbe, parasite or virus in culture; type: cell-based; conditions: Pseudomonas aeruginosa, CDC0110, read-out: Minimum inhibitory concentration, P. aeruginosa CDC-0110
N. gonorrhoeae WHO M = test: Liquid broth MIC in Fastidious broth; conditions: Neisseria gonorrhoeae, read-out: Minimum Inhibitory Concentration (MIC), N. gonorrhoeae WHO M
A. baumannii ATCC 17978 = test: microbe, parasite or virus in culture; type: cell-based; conditions: Acinetobacter baumannii, ATCC17978, read-out: MIC, A. baumannii ATCC 17978
P. aeruginosa ATCC 35151 = test: microbe, parasite or virus in culture; type: cell-based; conditions: Pseudomonas aeruginosa, ATCC35151, read-out: Minimum inhibitory concentration, P. aeruginosa ATCC 35151
[2] = molecular target: T1, PBP3 from Pseudomonas aeruginosa (PAO1) (Pseudomonas aeruginosa, UniProt G3XD46); test: Bocillin-FL fluorescence polarization competition binding, P. aeruginosa PBP3; conditions: Binding affinity to P. aeruginosa PBP3; fluorescence polarization competition binding assay using Bocillin-FL; read-out: P. aeruginosa PBP3 Potency
T1 construct: made in house
Procedure, shortened: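 Purified PBP was preincubated with inhibitor (E. coli PBP3 1.5 μM, 30 min; P. aeruginosa PBP3 0.75 μM, A. baumannii PBP3 0.2 μM and PBP1a 1 μM, 15 min), then Bocillin-FL (0.1 μM; 0.05 μM for PBP1a) added and FP read up to 60 min. EC50 = 50% loss of bound probe.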

N. gonorrhoeae CDC-0197 = test: Liquid broth MIC in Fastidious broth; conditions: Neisseria gonorrhoeae, CDC0197, read-out: Minimum Inhibitory Concentration (MIC), N. gonorrhoeae CDC-0197
P. aeruginosa CDC-0095 = test: microbe, parasite or virus in culture; type: cell-based; conditions: Pseudomonas aeruginosa, CDC0095, read-out: Minimum inhibitory concentration, P. aeruginosa CDC-0095
A. baumannii ATCC 19606 = test: microbe, parasite or virus in culture; type: cell-based; conditions: Acinetobacter baumannii, ATCC19606, read-out: MIC, A. baumannii ATCC 19606
A. baumannii CDC-0083 = test: microbe, parasite or virus in culture; type: cell-based; conditions: Acinetobacter baumannii, CDC0083, read-out: MIC, A. baumannii CDC-0083

T1 sequence (G3XD46 whole entry): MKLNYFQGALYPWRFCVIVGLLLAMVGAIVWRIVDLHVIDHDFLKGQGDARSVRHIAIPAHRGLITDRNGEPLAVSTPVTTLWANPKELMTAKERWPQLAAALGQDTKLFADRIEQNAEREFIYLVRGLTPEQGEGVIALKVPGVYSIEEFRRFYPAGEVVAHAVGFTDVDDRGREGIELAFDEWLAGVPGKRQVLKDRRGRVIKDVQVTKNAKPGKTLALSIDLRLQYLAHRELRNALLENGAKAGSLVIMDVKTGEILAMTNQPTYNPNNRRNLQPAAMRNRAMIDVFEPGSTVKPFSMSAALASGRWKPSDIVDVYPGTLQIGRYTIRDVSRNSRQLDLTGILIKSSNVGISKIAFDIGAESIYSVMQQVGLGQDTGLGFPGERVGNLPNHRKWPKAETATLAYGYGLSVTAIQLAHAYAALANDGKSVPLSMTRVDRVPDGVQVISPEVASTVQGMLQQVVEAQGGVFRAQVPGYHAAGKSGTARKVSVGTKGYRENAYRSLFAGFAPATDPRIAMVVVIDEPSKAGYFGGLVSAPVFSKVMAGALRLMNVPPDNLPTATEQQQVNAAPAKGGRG

Question: Which MIC (A. baumannii CDC-0036) does the source give for `O=C(NCCN1CCN(C(=O)NC(C(=O)N[C@H]2Cc3ccc(F)c(C(=O)O)c3OB2O)c2cc(F)c(O)c(O)c2Cl)C(=O)C1=O)c1cccc(O)c1` (stereo partly drawn) [Example 215, (3R)-3-(2-(2-chloro-5-fluoro-3,4-dihydroxyphenyl)-2-(4-(2-(3-hydroxybenzamido)ethyl)-2,3-dioxopiperazine-1-carboxamido)acetamido)-7-fluoro-2-hydroxy-3,4-dihydro-2H-benzo[e][1,2]oxaborinine-8-carboxylic acid] here?
Answer: 8 to 16 µg/mL (≈ 10.7 to 21.5 µM)

Question: What about the MIC [1] of the same compound?
Answer: 16 to 32 µg/mL (≈ 21.5 to 42.9 µM)

Question: What about the MIC (N. gonorrhoeae WHO X) of the same compound?
Answer: > 64 µg/mL

Question: What about the MIC (A. baumannii 1258916) of the same compound?
Answer: 2 to 4 µg/mL (≈ 2.68 to 5.36 µM)

Question: What about the MIC (A. baumannii CDC-0033) of the same compound?
Answer: 8 to 16 µg/mL (≈ 10.7 to 21.5 µM)

Question: And the MIC (N. gonorrhoeae MS11)?
Answer: 16 to 32 µg/mL (≈ 21.5 to 42.9 µM)

Question: And the MIC (P. aeruginosa CDC-0110)?
Answer: < 1 µg/mL

Question: And the MIC (N. gonorrhoeae WHO M)?
Answer: 4 to 8 µg/mL (≈ 5.36 to 10.7 µM)

Question: What about the MIC (A. baumannii ATCC 17978) of the same compound?
Answer: < 1 µg/mL

Question: And the MIC (P. aeruginosa ATCC 35151)?
Answer: < 1 µg/mL

Question: And the IC50 [2]?
Answer: < 10 µM

Question: What about the MIC (N. gonorrhoeae CDC-0197) of the same compound?
Answer: 16 to 32 µg/mL (≈ 21.5 to 42.9 µM)

Question: What about the MIC (P. aeruginosa CDC-0095) of the same compound?
Answer: 2 to 4 µg/mL (≈ 2.68 to 5.36 µM)

Question: And the MIC (A. baumannii ATCC 19606)?
Answer: < 1 µg/mL

Question: What about the MIC (A. baumannii CDC-0083) of the same compound?
Answer: > 128 µg/mL

Question: With `O=C(NCCN1CCN(C(=O)NC(C(=O)N[C@H]2Cc3ccc(F)c(C(=O)O)c3OB2O)c2cc(F)c(O)c(O)c2Cl)C(=O)C1=O)c1ccncc1` (stereo partly drawn) [Example 216, (3R)-3-(2-(2-chloro-5-fluoro-3,4-dihydroxyphenyl)-2-(4-(2-(isonicotinamido)ethyl)-2,3-dioxopiperazine-1-carboxamido)acetamido)-7-fluoro-2-hydroxy-3,4-dihydro-2H-benzo[e][1,2]oxaborinine-8-carboxylic acid] as the compound, how does the MIC (A. baumannii CDC-0036) read?
Answer: 8 to 16 µg/mL (≈ 10.9 to 21.9 µM)

Question: What about the MIC [1] of the same compound?
Answer: 16 to 32 µg/mL (≈ 21.9 to 43.8 µM)

Question: And the MIC (N. gonorrhoeae WHO X)?
Answer: > 64 µg/mL

Question: And the MIC (A. baumannii 1258916)?
Answer: 2 to 4 µg/mL (≈ 2.74 to 5.47 µM)

Question: And the MIC (A. baumannii CDC-0033)?
Answer: 8 to 16 µg/mL (≈ 10.9 to 21.9 µM)

Question: And the MIC (N. gonorrhoeae MS11)?
Answer: 16 to 32 µg/mL (≈ 21.9 to 43.8 µM)

Question: And the MIC (P. aeruginosa CDC-0110)?
Answer: < 1 µg/mL

Question: What about the MIC (N. gonorrhoeae WHO M) of the same compound?
Answer: 4 to 8 µg/mL (≈ 5.47 to 10.9 µM)

Question: And the MIC (A. baumannii ATCC 17978)?
Answer: < 1 µg/mL

Question: What about the MIC (P. aeruginosa ATCC 35151) of the same compound?
Answer: < 1 µg/mL

Question: What about the IC50 [2] of the same compound?
Answer: < 10 µM

Question: What about the MIC (N. gonorrhoeae CDC-0197) of the same compound?
Answer: 16 to 32 µg/mL (≈ 21.9 to 43.8 µM)

Question: What about the MIC (P. aeruginosa CDC-0095) of the same compound?
Answer: 8 to 16 µg/mL (≈ 10.9 to 21.9 µM)

Question: What about the MIC (A. baumannii ATCC 19606) of the same compound?
Answer: < 1 µg/mL

Question: And the MIC (A. baumannii CDC-0083)?
Answer: > 128 µg/mL

Question: Which MIC (A. baumannii CDC-0036) does the source give for `O=C(NCCN1CCN(C(=O)NC(C(=O)N[C@H]2Cc3ccc(F)c(C(=O)O)c3OB2O)c2cc(F)c(O)c(O)c2Cl)C(=O)C1=O)c1cccnc1` (stereo partly drawn) [Example 217, (3R)-3-(2-(2-chloro-5-fluoro-3,4-dihydroxyphenyl)-2-(4-(2-(nicotinamido)ethyl)-2,3-dioxopiperazine-1-carboxamido)acetamido)-7-fluoro-2-hydroxy-3,4-dihydro-2H-benzo[e][1,2]oxaborinine-8-carboxylic acid] here?
Answer: 8 to 16 µg/mL (≈ 10.9 to 21.9 µM)

Question: What about the MIC [1] of the same compound?
Answer: 16 to 32 µg/mL (≈ 21.9 to 43.8 µM)

Question: What about the MIC (N. gonorrhoeae WHO X) of the same compound?
Answer: > 64 µg/mL

Question: And the MIC (A. baumannii 1258916)?
Answer: 2 to 4 µg/mL (≈ 2.74 to 5.47 µM)

Question: And the MIC (A. baumannii CDC-0033)?
Answer: 8 to 16 µg/mL (≈ 10.9 to 21.9 µM)

Question: What about the MIC (N. gonorrhoeae MS11) of the same compound?
Answer: 16 to 32 µg/mL (≈ 21.9 to 43.8 µM)

Question: What about the MIC (P. aeruginosa CDC-0110) of the same compound?
Answer: < 1 µg/mL

Question: What about the MIC (N. gonorrhoeae WHO M) of the same compound?
Answer: 16 to 32 µg/mL (≈ 21.9 to 43.8 µM)

Question: And the MIC (A. baumannii ATCC 17978)?
Answer: < 1 µg/mL

Question: What about the MIC (P. aeruginosa ATCC 35151) of the same compound?
Answer: < 1 µg/mL

Question: What about the IC50 [2] of the same compound?
Answer: < 10 µM

Question: What about the MIC (N. gonorrhoeae CDC-0197) of the same compound?
Answer: 16 to 32 µg/mL (≈ 21.9 to 43.8 µM)

Question: What about the MIC (P. aeruginosa CDC-0095) of the same compound?
Answer: 2 to 4 µg/mL (≈ 2.74 to 5.47 µM)

Question: And the MIC (A. baumannii ATCC 19606)?
Answer: 2 to 4 µg/mL (≈ 2.74 to 5.47 µM)

Question: And the MIC (A. baumannii CDC-0083)?
Answer: > 128 µg/mL

Question: With `O=C(NCCN1CCN(C(=O)NC(C(=O)N[C@H]2Cc3ccc(F)c(C(=O)O)c3OB2O)c2cc(F)c(O)c(O)c2Cl)C(=O)C1=O)c1nccs1` (stereo partly drawn) [Example 218, (3R)-3-(2-(2-chloro-5-fluoro-3,4-dihydroxyphenyl)-2-(2,3-dioxo-4-(2-(thiazole-2-carboxamido)ethyl)piperazine-1-carboxamido)acetamido)-7-fluoro-2-hydroxy-3,4-dihydro-2H-benzo[e][1,2]oxaborinine-8-carboxylic acid] as the compound, how does the MIC (A. baumannii CDC-0036) read?
Answer: 8 to 16 µg/mL (≈ 10.9 to 21.7 µM)

Question: And the MIC [1]?
Answer: 16 to 32 µg/mL (≈ 21.7 to 43.4 µM)

Question: And the MIC (N. gonorrhoeae WHO X)?
Answer: > 64 µg/mL

Question: And the MIC (A. baumannii 1258916)?
Answer: 2 to 4 µg/mL (≈ 2.71 to 5.43 µM)

Question: What about the MIC (A. baumannii CDC-0033) of the same compound?
Answer: 8 to 16 µg/mL (≈ 10.9 to 21.7 µM)

Question: What about the MIC (N. gonorrhoeae MS11) of the same compound?
Answer: 16 to 32 µg/mL (≈ 21.7 to 43.4 µM)

Question: What about the MIC (P. aeruginosa CDC-0110) of the same compound?
Answer: 2 to 4 µg/mL (≈ 2.71 to 5.43 µM)

Question: And the MIC (N. gonorrhoeae WHO M)?
Answer: 16 to 32 µg/mL (≈ 21.7 to 43.4 µM)

Question: And the MIC (A. baumannii ATCC 17978)?
Answer: < 1 µg/mL

Question: And the MIC (P. aeruginosa ATCC 35151)?
Answer: < 1 µg/mL

Question: What about the IC50 [2] of the same compound?
Answer: < 10 µM

Question: And the MIC (N. gonorrhoeae CDC-0197)?
Answer: 16 to 32 µg/mL (≈ 21.7 to 43.4 µM)

Question: What about the MIC (P. aeruginosa CDC-0095) of the same compound?
Answer: 8 to 16 µg/mL (≈ 10.9 to 21.7 µM)

Question: What about the MIC (A. baumannii ATCC 19606) of the same compound?
Answer: 2 to 4 µg/mL (≈ 2.71 to 5.43 µM)

Question: And the MIC (A. baumannii CDC-0083)?
Answer: 8 to 16 µg/mL (≈ 10.9 to 21.7 µM)
